Like-named read-outs stand apart in the source and are kept apart here. Blank lines part the entries; values can stand above or below the molecule they belong to.
Experiments:
[1] = MTT cytotoxic activity assay on MDA-MB-231 breast cancer cells; type: cell-based, human; conditions: human, MDA-MB-231 breast cancer cells; for viability at 24 h, 75 µM: MDA-MB-231, 75 µM; for viability at 24 h, 75 µM / viability at 24 h, 25 µM: read-out: cell viability
Experimental: (§1) Cytotoxic activity was performed according to the previously described methods. Breast cancer cell lines MDA-MB-231 were maintained in Dulbecco’s modified eagle medium (DMEM, Invitrogen, Carlsbad, CA, USA). The media was supplemented with 10% fetal bovine serum (FBS) and 1% antimycotic antibiotic (Invitrogen, Carlsbad, CA, USA). Cells were cultured in a 5% CO2-humidified atmosphere at 37 °C. Stock solution (5 mg/mL) of 3-(4,5-dimethylthiazol-2-yl)-2,5-diphenyltetrazolium bromide (MTT, Merck, Darmstadt, Hesse, Germany) was prepared in phosphate-buffered saline (PBS).
(§2) Cells were seeded at a density of 1 × 10^4 cells per well in 96-well microtiter culture plates. After overnight incubation, normal growth medium was removed and replaced with either fresh medium (untreated control) or different concentrations of respective compounds in growth medium diluted from a 2 mM stock. After 24 h of incubation, MTT solution was added to each well (0.1 mg/mL in DMEM) and incubated further for 4 h at 37 °C. Upon termination, the supernatant was aspirated and the MTT formazan, formed by metabolically viable cells, was dissolved in a solubilization solution containing DMSO (100 սL) by mixing for 5 min on a gyratory shaker. The absorbance was measured at 540 nm (reference wavelength 690 nm) on an Ultra Multifunctional Microplate Reader (Bio-Rad, Hercules, California, USA). Absorbance of control (without treatment) was considered as 100% cell survival. Each treatment had three replicate wells [56]. The IC50 values of the active compounds were calculated using nonlinear regression through GraphPad Prism 4 software (La Jolla, CA, USA).

[2] = system: MDA-MB-231 breast cancer cells; experiment: as above; type: cell-based, human; conditions: for IC50: MDA-MB-231, MTT, 24 h incubation, read-out: IC50 (Mean ± SEM)
Experimental: as §1, §2

bovine erythrocyte CA-II = molecular target: T1, bovine erythrocyte CA-II (Bos taurus, UniProt P00921); experiment: Carbonic anhydrase II inhibition (4-nitrophenyl acetate); type: biochemical; parameters: % Inhibition: concentration or dose not given beside the values; conditions: CA-II in vitro; for IC50: read-out: IC50 (µM) ± (SEM)
T1 construct: purified bovine erythrocyte CA-II; purchased Sigma-Aldrich; host or cells: bovine erythrocytes (natural source)
Experimental: The total reaction volume of 200 µL included 20 µL of test compounds prepared in DMSO, followed by the addition of 140 µL of the HEPES–tris buffer, 20 µL of purified bovine erythrocyte CA-II (0.1 mg/mL) prepared in buffer, and 20 µL of a solution of 4-nitrophenyl acetate. A 20 µL amount of test compound was incubated with the enzyme (EC 4.2.1.1, Sigma-Aldrich, St. Louis, MO, USA) for 15 min in a 96-well flat-bottom plate. The rate of product formation was monitored with the addition of 20 µL of 4-NPA as substrate, prepared in methanol at the final concentration of 0.7 mM, at 25 °C for 30 min with regular intervals of 1 min, by using microplate readers (Bio-Rad, Molecular Devices, CA, USA). HEPES-tris was used as a buffer for the reaction at the final concentration of 20 mM at pH 7.4. The percent inhibition was calculated by using the following formula:% Inhibition = 100 − (OD test well/OD control) × 100

[3] = DPPH radical scavenging (antioxidant) assay; conditions: for IC50: isolated compounds
Experimental: Free radical scavenging activity of the test fractions/compounds was determined by measuring the change in absorbance of DPPH (l, l-Diphenyl-2-picrylhydrazyl radical, Sigma-Aldrich, St Louis, MO, USA) at 515 nm by the microplate reader (SpectraMax M2, Molecular Devices, CA, USA) as previously described. […] The IC50 values of the tested compounds were calculated using nonlinear regression through GraphPad Prism 4 software (La Jolla, CA, USA).

[4] = reported earlier by the group; cited from earlier work

T1 sequence (P00921 whole entry): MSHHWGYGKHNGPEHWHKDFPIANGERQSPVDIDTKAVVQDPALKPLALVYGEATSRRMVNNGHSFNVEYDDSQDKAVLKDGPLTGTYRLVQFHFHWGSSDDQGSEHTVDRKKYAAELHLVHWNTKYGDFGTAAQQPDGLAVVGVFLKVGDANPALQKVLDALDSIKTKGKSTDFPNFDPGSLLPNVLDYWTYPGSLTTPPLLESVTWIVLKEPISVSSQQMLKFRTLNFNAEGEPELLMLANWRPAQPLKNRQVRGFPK

SMILES: C=C1C(=O)OC2C1CCC(O)C1(C)CCC(C)(O)C21 (stereo not shown) [Compound 3, lyciumate]
viability at 24 h, 25 µM ([1]; MDA-MB-231, 25 µM): 81 to 89% | IC50 ([2]; Homo sapiens, MDA-MB-231, 24 h): 49.4 ± 3.73 µM

SMILES: CC1OC(OCc2cc(O)c3c(c2)C(=O)c2cccc(O)c2C3=O)C(O)C(O)C1O (stereo not shown) [Compound 8, aloe emodine 11-O-rhamnoside]
viability at 24 h, 25 µM ([1]; MDA-MB-231, 25 µM): 81 to 89% | IC50 ([2]; Homo sapiens, MDA-MB-231, 24 h): 72 µM | IC50 [2]: 72.2 ± 6.29 µM

SMILES: O=C1c2cccc(O)c2C(=O)c2c(O)cc(CO)cc21 [Compound 5, aloe emodin]
IC50 ([2]; Homo sapiens, MDA-MB-231, 24 h): ~31 µM | loss of cell viability ([2]; MDA-MB-231, 25 µM): 50.53% | IC50 [2]: 31.4 ± 2.44 µM | % Inhibition (bovine erythrocyte CA-II): 86.3% | IC50 (bovine erythrocyte CA-II): 14.4 ± 1.14 µM

SMILES: COc1cccc2c1C(=O)c1c(O)c3c(c(O)c1C2=O)C[C@@](O)(C(=O)CO)C[C@@H]3O[C@H]1C[C@H](N)[C@H](O)[C@H](C)O1 [Doxorubicin, reference compound]
IC50 ([2]; Homo sapiens, MDA-MB-231, 24 h): 3.31 ± 0.19 µM

SMILES: O=C1O[C@H]([C@@H](O)CO)C(O)=C1O [Ascorbic acid, reference compound]
Antioxidant % Inhibition ([3]; concentration = 1 mg/mL): 90% | Antioxidant IC50 ± SEM ([3]; fractions and standard): 53 ± 1.32 µg/mL

SMILES: O=C(/C=C/c1ccccc1)O[C@@H]1O[C@H](CO)[C@@H](O)[C@H](O)[C@H]1OC(=O)c1cc(O)c(O)c(O)c1 [Compound 9, lyciumaside]
antioxidant IC50 [4]: 30 µg/mL | viability at 24 h, 25 µM ([1]; MDA-MB-231, 25 µM): 81 to 89% | IC50 ([2]; Homo sapiens, MDA-MB-231, 24 h): 76 µM | cytotoxic effect / cell growth inhibition ([2]; MDA-MB-231, 25 µM): did not inhibit cell growth significantly | loss of cell viability ([2]; MDA-MB-231, 100 µM): approximately 70% | IC50 [2]: 76.9 ± 7.04 µM | cell growth inhibition ([2]; MDA-MB-231, concentrations above 50 µM): above 50%

SMILES: O=C1c2c(O)cccc2[C@](O)([C@@H]2O[C@H](CO)[C@@H](O)[C@H](O)[C@H]2O)c2cc(CO)cc(O)c21 [Compound 10, 10-hydroxy aloin A]
viability at 24 h, 75 µM [1]: 77% | IC50 ([2]; Homo sapiens, MDA-MB-231, 24 h): 143 ± 12.7 µM | cytotoxic effect / cell growth inhibition ([2]; MDA-MB-231, 25 µM): growth-promoting effect

SMILES: C[C@@H]1O[C@@H](OCc2cc(O)c3c(c2)[C@H]([C@@H]2O[C@H](CO)[C@@H](O)[C@H](O)[C@H]2O)c2cccc(O)c2C3=O)[C@H](O)[C@H](O)[C@H]1O [Compound 11, aloinoside B]
viability at 24 h, 75 µM [1]: 64% | IC50 ([2]; Homo sapiens, MDA-MB-231, 24 h): 140 ± 13.1 µM | cytotoxic effect / cell growth inhibition ([2]; MDA-MB-231, 25 µM): no cell growth inhibition

Further lines, with some results ahead:

% Inhibition (bovine erythrocyte CA-II): 91.2% | IC50 (bovine erythrocyte CA-II): 23.3 ± 1.63 µM
SMILES: COc1cc(=O)oc2cc(O)cc(C)c12 [Compound 12, 7-demethylsiderin]
inhibition at 24 h, 25 µM ([1]; MDA-MB-231, 25 µM, read-out: cytotoxic effect / cell growth inhibition): ~14% | viability at 24 h, 75 µM [1]: 44% | IC50 ([2]; Homo sapiens, MDA-MB-231, 24 h): 60.1 ± 4.82 µM

IC50 [3]: 55 ± 2 µM
SMILES: Oc1cc(O)c2c(c1)O[C@H](c1ccc(O)c(O)c1)[C@@H](O)C2 [Compound 4, catechin]
% Inhibition (1 mM) [3]: 78% | IC50 ([2]; Homo sapiens, MDA-MB-231, 24 h): 101 ± 7.09 µM

% Inhibition (bovine erythrocyte CA-II): 33% | IC50 (µM) ± (SEM) (bovine erythrocyte CA-II): inactive
SMILES: C=C1CC[C@H]2C(=C)CC[C@H]3C(=C)C(=O)O[C@@H]3[C@@H]12 [Compound 1, dehydrocostus lactone]
antioxidant activity (in words) [3]: moderate activity | viability at 24 h, 25 µM ([1]; MDA-MB-231, 25 µM): 76% | IC50 ([2]; Homo sapiens, MDA-MB-231, 24 h): 35.4 ± 2.56 µM | inhibition at 100 µM ([2]; Homo sapiens, MDA-MB-231, 100 µM, read-out: inhibition of cell proliferation): 92.1%

IC50 [3]: 762 ± 2 µM
SMILES: CC(=O)Cc1cc(=O)c2c(C)cc(O)c(C3OC(COC(=O)C=Cc4ccc(O)cc4)C(O)C(O)C3O)c2o1 (stereo not shown) [Compound 13, 6′-O-coumaroylaloesin]
% Inhibition (1 mM) [3]: 73%

% Inhibition (bovine erythrocyte CA-II): 84.7% | IC50 (bovine erythrocyte CA-II): 24.4 µM
SMILES: C=C1C(=O)O[C@@H]2/C=C(\C)CC/C=C(\C)CC[C@@H]12 [Compound 2, costunolide]
viability at 24 h, 25 µM ([1]; MDA-MB-231, 25 µM): 81 to 89% | IC50 ([2]; Homo sapiens, MDA-MB-231, 24 h): 42.1 ± 2.98 µM

IC50 [3]: 645 ± 1.5 µM
SMILES: Cc1cc(O)c2c(c1)C(=O)c1cc(O)cc(O)c1C2=O [Compound 6, emodin]
% Inhibition (1 mM) [3]: 71% | IC50 ([2]; Homo sapiens, MDA-MB-231, 24 h): 73 µM | IC50 [2]: 73.5 ± 5.89 µM

IC50 [3]: 241 ± 1.5 µM
SMILES: C[C@@H]1C[C@@H](O)Cc2cc(O)cc(O)c21 [Compound 14, feroxidin]
% Inhibition (1 mM) [3]: 80%

Reference: paper PMC7281707, “Antiproliferative and Carbonic Anhydrase II Inhibitory Potential of Chemical Constituents from Lycium shawii and Aloe vera: Evidence from In Silico Target Fishing and In Vitro Testing” (Pharmaceuticals, 2020)
